pIC50: −log10 of the molar value.
System: 292921-168-R-J2-PDC complex spheroid viability
Experiment: Anticancer human tumor 292921-168-R-J2-PDC patient-derived pancreatic carcinoma cell line growth inhibition
Settings: for pIC50: curve of first compound; for viability, T/C: stronger effect = lower value
In short: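 Multicellular complex spheroids of tumor cells with human endothelial cells (HUVEC) and mesenchymal stem cells; the LSD1 inhibitor iadademstat was combined with standard-of-care or investigational agents. Top concentration at or near clinical Cmax, half-log dilutions; final DMSO ≤0.25%.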

[1] = second compound 0.1 µM, first compound 0.0316 µM
[2] = second compound 0.1 µM, first compound 0.1 µM
[3] = second compound 0.1 µM, first compound 0.316 µM
[4] = second compound 0.1 µM, first compound 1 µM
[5] = second compound 0.1 µM, first compound 3.16 µM
[6] = second compound 0.1 µM, first compound 10 µM
[7] = second compound 0.316 µM, first compound 0.0316 µM
[8] = second compound 0.316 µM, first compound 0.1 µM
[9] = second compound 0.316 µM, first compound 0.316 µM
[10] = second compound 0.316 µM, first compound 1 µM
[11] = second compound 0.316 µM, first compound 3.16 µM
[12] = second compound 0.316 µM, first compound 10 µM
[13] = second compound 1 µM, first compound 0.0316 µM
[14] = second compound 1 µM, first compound 0.1 µM
[15] = second compound 1 µM, first compound 0.316 µM
[16] = second compound 1 µM, first compound 1 µM
[17] = second compound 1 µM, first compound 3.16 µM
[18] = second compound 1 µM, first compound 10 µM
[19] = second compound 3.16 µM, first compound 0.0316 µM
[20] = second compound 3.16 µM, first compound 0.1 µM
[21] = second compound 3.16 µM, first compound 0.316 µM
[22] = second compound 3.16 µM, first compound 1 µM
[23] = second compound 3.16 µM, first compound 3.16 µM
[24] = second compound 3.16 µM, first compound 10 µM
[25] = second compound 10 µM, first compound 0.0316 µM
[26] = second compound 10 µM, first compound 0.1 µM
[27] = second compound 10 µM, first compound 0.316 µM
[28] = second compound 10 µM, first compound 1 µM
[29] = second compound 10 µM, first compound 3.16 µM
[30] = second compound 10 µM, first compound 10 µM
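Further: seven day compound exposure before luminescent viability read.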
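Wherever viability, T/C is given: 100% = DMSO vehicle control wells.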

| Structure (SMILES) | pIC50 (second compound 0.1 µM) | pIC50 (second compound 0.316 µM) | pIC50 (second compound 1 µM) | pIC50 (second compound 3.16 µM) | pIC50 (second compound 10 µM) | viability, T/C [1] | viability, T/C [2] | viability, T/C [3] | viability, T/C [4] | viability, T/C [7] | viability, T/C [8] | viability, T/C [9] | viability, T/C [10] | viability, T/C [13] | viability, T/C [14] | viability, T/C [15] | viability, T/C [16] | viability, T/C [19] | viability, T/C [20] | viability, T/C [21] | further results |
| --- | --- | --- | --- | --- | --- | --- | --- | --- | --- | --- | --- | --- | --- | --- | --- | --- | --- | --- | --- | --- | --- |
| CC(C)c1c(-c2ccccc2)nc2c(C#N)c[nH]n2c1=O + NC1CC1c1ccc(-c2cccc(O)c2)cc1 | < 5.00 | < 5.00 | < 5.00 | < 5.00 | < 5.00 | 79.9% | 84% | 82% | 70.7% | 81.7% | 73% | 80.7% | 69.5% | 71.8% | 68.9% | 66.8% | 66.2% | 58.6% | 65.3% | 64.4% | viability, T/C [5]: 78.4%; viability, T/C [6]: 66%; viability, T/C [11]: 71.4%; viability, T/C [12]: 60.4%; viability, T/C [17]: 61.1%; viability, T/C [18]: 55.7%; viability, T/C [22]: 57.9%; viability, T/C [23]: 52.2%; viability, T/C [24]: 59.6%; viability, T/C [25]: 58.1%; viability, T/C [26]: 53.2%; viability, T/C [27]: 58.4%; viability, T/C [28]: 53.7%; viability, T/C [29]: 49.8%; viability, T/C [30]: 52.2% |
| CC1COCCN1c1cc(-c2ccnn2C)c2ccnc(-c3ccn[nH]3)c2n1 (stereo not given) + NC1CC1c1ccc(-c2cccc(O)c2)cc1 | > 8.50 | > 8.50 | > 8.50 | > 8.50 | > 8.50 | 14.2% | 15.7% | 16.2% | 17.7% | 13.2% | 14.3% | 15.9% | 16.7% | 14.1% | 12.7% | 16.8% | 20.3% | 14.7% | 13.7% | 14.9% | viability, T/C (second compound 0.1 µM, first compound 0.00316 µM): 16.9%; viability, T/C (second compound 0.1 µM, first compound 0.01 µM): 15.3%; viability, T/C (second compound 0.316 µM, first compound 0.00316 µM): 17.2%; viability, T/C (second compound 0.316 µM, first compound 0.01 µM): 14.9%; viability, T/C (second compound 1 µM, first compound 0.00316 µM): 17.7%; viability, T/C (second compound 1 µM, first compound 0.01 µM): 15.4%; viability, T/C (second compound 3.16 µM, first compound 0.00316 µM): 15.2%; viability, T/C (second compound 3.16 µM, first compound 0.01 µM): 15.4%; viability, T/C [22]: 17%; viability, T/C (second compound 10 µM, first compound 0.00316 µM): 15.1%; viability, T/C (second compound 10 µM, first compound 0.01 µM): 14.6%; viability, T/C [25]: 14.6%; viability, T/C [26]: 13.5%; viability, T/C [27]: 15.1%; viability, T/C [28]: 17.1% |
| CC1COCCN1c1cc(C2(S(C)(=N)=O)CC2)nc(-c2ccnc3[nH]ccc23)n1 (stereo not given) + NC1CC1c1ccc(-c2cccc(O)c2)cc1 | 6.43 | 6.50 | 6.53 | 6.60 | 6.98 | 88.3% | 82% | 51% | 28.8% | 66.8% | 58.8% | 51.8% | 26.5% | 63.1% | 61.6% | 48.9% | 25.5% | 59.4% | 63.6% | 46.3% | viability, T/C [5]: 15.2%; viability, T/C [6]: 11.4%; viability, T/C [11]: 15.4%; viability, T/C [12]: 11.4%; viability, T/C [17]: 13.2%; viability, T/C [18]: 11.5%; viability, T/C [22]: 23.2%; viability, T/C [23]: 13.7%; viability, T/C [24]: 11.8%; viability, T/C [25]: 50.9%; viability, T/C [26]: 53.3%; viability, T/C [27]: 39.6%; viability, T/C [28]: 27.1%; viability, T/C [29]: 12.2%; viability, T/C [30]: 11.4% |

— PubChem BioAssay AID1918934 (Molecular Pharmacology Branch, DTP, NCI, 2023)
